Data set [1] concerns apomorphine induced gnawing. Put plainly: Inhibition of apomorphine induced gnawing in the rat. It counts as in vivo, rat (Sprague-Dawley). To be noted: po, apomorphine hydrochloride 2.0 mg/kg i.v., read-out: threshold dose (100% inhibition of apomorphine induced gnawing). Here is the method:
The compound of formula I inhibits apomorphine induced gnawing in the rat in a method based on that of P.A. Janssen et al., Arzneim.-Forsch. (Drug Res.) 10, 1003-1005 (1960):
Groups of 3-6 rats (males and females, 90-160 g, Sprague-Dawley, Suddeutsche Tierfarm, Tuttlingen, West Germany) are treated with the test-drug orally and after a pre-determined time further treated with 2.0 mg/kg i.v. apomorphine hydrochloride in aq. solution. They are then placed in individual cages lined with corrugated paper. At times 10, 20 and 30 minutes after the apomorphine each rat is observed for 1 minute. If gnawing occurred during an observation period, that observation is scored as positive. Thus, three scores are obtained from each rat. The supra-maximal dose of apomorphine invariably produces gnawing in all controls at all observation times. Out of the total number of observations per treatment group, the number of positives is noted. The dose of drug which causes a 100% inhibition of the apomorphine induced gnawing is taken as the threshold dose. After a pretreatment time of 3 hours the threshold dose for the compound of formula I is 0.2 mg/kg p.o., after a pretreatment time of 6 hours also 0.2 mg/kg p.o.

Data set [2] can be described thus: Non-toxic dose level in the dog after 4 week treatment. To be noted: in vivo, po, after a 4 week treatment. On the procedure:
(§1) The compound of formula I is well tolerated in mice up to 100 mg/kg p.o. The non-toxic dose level in the dog after a 4 week treatment is 3 mg/kg/day p.o.

Data set [3] deals with rats with an unilateral 6-OHDA (6-hydroxydopamine) induced lesion of the substantia nigra. The data set is described as follows: Rotational behaviour in rats with unilateral 6-OHDA induced lesion of the substantia nigra (Ungerstedt rat). Type of data set: in vivo. The text has this:
For instance, the compound of formula I induces in rats with an unilateral 6-OHDA (6-hydroxydopamine) induced lesion of the substantia nigra [i.e. Ungerstedt rat, c.f.

A further data set addresses T1, D-2 receptor sites (Bos taurus, UniProt P20288).
T1 construct: Calf striatal membranes are prepared as described above; from tissue; host or cells: calf brain striatum, membrane homogenate
The data set is described as follows: D-2 receptor binding, 3H-spiperone binding assay in calf striatal membranes. On the procedure: (§2) Furthermore the compound of formula I binds to dopamine receptors as characterised by the displacement of ^3 H-ligands from their respective binding sites in the homogenates of brain tissue.
(§3) Fresh calf brain striatal tissue is homogenized in a 20 fold volume of Tris-HCl buffer (50 mM, pH 7.4 at 25° C.) using a Polytron tissue homogenizer. The homogenate is centrifuged for 10 minutes at 50,000 g (4° C.) and the supernatant discarded. The pellets are resuspended in the same buffer as before. The suspension is incubated for 20 minutes at 37° C. and then recentrifuged as before. The resulting pellets are stored frozen at -20° until their use in the binding assay. For the binding assay the pellets are resuspended in Tris-HCl buffer (50 mM, pH 7.4 at 37° C., containing 120 mM NaCl) in such a way that the final volume of 2 ml contains membranes corresponding to approximately 5 mg original tissue weight. ^3 H-SCH 23390 is added to give a final concentration of 0.1 nM. The assays for the determination of nonspecific binding additionally contain 1 μM unlabelled SCH 23390. The test compound is added to give 5 to 9 different concentrations. […] The filters are monitored for radioactivity through liquid scintillation counting. […]
The high affinity of the compound for D-2 receptor sites may be determined in the ^3 H-spiperone binding assay [cf. […]

A short description of another data set: Tolerability in mice. The conditions noted are these: mouse, in vivo, po, well tolerated up to, read-out: well tolerated dose. On the procedure:
as §1

The subject of a further data set is catalepsy. The data set is described as follows: Cataleptogenic activity in rats. It counts as in vivo, rat (Sprague-Dawley). To be noted: p.o. Here is the method:
(§4) (Drug Res.) 21, 252-255 (1971). In this test groups of 4-8 rats (120-170 g, Sprague-Dawley, females and males, Suddeutsche Tierfarm, Tuttlingen, West Germany) receive the test substance orally. At specified times after treatment the catalepsy of each rat is estimated by placing the forepaws on a 7 cm high block. The time for which the animal remains in this unnatural position is measured up to a maximum of 45 seconds. The threshold dose is the final dose, which still causes a catalepsy-median of >10 seconds. The compound of formula I has a threshold dose of 5 mg/kg p.o. determined during an 8 hour measurement period. This is a dose which is at least 25 times higher than that required to antagonize apomorphine induced gnawing.

Data set [4] in a line: Cataleptogenic activity in rats. It counts as in vivo, rat (Sprague-Dawley). The conditions noted are these: rat, in vivo, po, read-out: ratio of catalepsy threshold dose to dose required to antagonize apomorphine induced gnawing. Here is the method: as §4
Data set [5] relates to serum prolactin levels. The data set is described as follows: Serum prolactin levels in male rats after subcutaneous administration (radioimmunoassay). Type of data set: in vivo, rat (male OFA). The conditions noted are these: s.c., only at high doses. On the procedure:
E. Fluckiger et al., Experientia 34, 1330-1331 (1978)]:
Male OFA-rats of about 250 g body weight are brought to the experimental room 24 hours before the actual experiment. They are kept in appropriate cages by tens. After the experimental treatment they are kept singly. Food and water are freely available. Various doses of the compound or the vehicle are administered s.c. to groups of 5 animals. In this standard experiment the animals are decapitated 4 hours after treatment. The sera of the individual animals are deep frozen until assayed. Prolactin is then measured in aliquots by radioimmunoassay. The serum prolactin levels are expressed in ng/ml in terms of the prolactin standard NIAMD-RPrl-RP1.

The next data set addresses T2, D-1 receptor sites (Bos taurus, UniProt Q95136).
T2 construct: Fresh calf brain striatal tissue is homogenized; from tissue; host or cells: calf brain striatum, membrane homogenate
Put plainly: D-1 receptor binding, displacement of 3H-SCH 23390 in calf striatal membranes. On the procedure:
as §2
The affinity to D-1 receptor sites [cf. W. Billard et al., Life Sci. 35, 1885-1893 (1984)] using ^3 H-(R)-(+)-8-chloro-7-hydroxy-3-methyl-5-phenyl-2,3,4,5-tetrahydro-1H-3-benzazepine (^3 H-SCH 23390) as ligand is determined as follows:
as §3, with “23390.” for “23390. The test compound is added to give 5 to 9 different concentrations.”
A general note: In a radioligand displacement assay an active substance lowers the binding of a labelled ligand.

Data set [6] concerns serum prolactin levels. Also noted: species or system rat (male Sprague-Dawley). To be noted: rat, in vivo. Here is the method: The test is performed as follows:
Male rats (120-140 g, Sprague-Dawley, Suddeutsche Tierfarm, Tuttlingen, West Germany) are maintained on a 12:12 light dark cycle (lights on 06.00, off 18.00 hrs). On the evening before the experiment, animals are marked for identification purposes and caged in groups of 4 into makrolon (type 3) cages. The next morning, the rats in each group receive 10 mg/kg p.o. of the test drug or placebo (normal saline solution+2 drops HCl) 2, 4, 8, 16 or 24 hours before they are killed by decapitation. Blood samples are collected in plastic tubes, centrifuged to obtain the serum, which is then stored at -20° C. until assayed for prolactin. Prolactin in the serum is measured by radioimmunoassay according to that of A. Hausler et al., J. Ultrastruct. Res. 64, 74 (1978).

Read-outs that look alike come from different tables or passages of the source.

Here are results for two molecules from US5075318A, “8α-acylaminoergoline, its preparation and pharmaceutical compositions containing it” (Sandoz Ltd., priority 1987, dated 1991).

One may read the NOAEL as the highest tested level that showed no adverse finding. The IC50 is the point on the concentration scale where inhibition reaches its midpoint. Read a high IC50 as weaker potency.

T2 sequence (Q95136 whole entry): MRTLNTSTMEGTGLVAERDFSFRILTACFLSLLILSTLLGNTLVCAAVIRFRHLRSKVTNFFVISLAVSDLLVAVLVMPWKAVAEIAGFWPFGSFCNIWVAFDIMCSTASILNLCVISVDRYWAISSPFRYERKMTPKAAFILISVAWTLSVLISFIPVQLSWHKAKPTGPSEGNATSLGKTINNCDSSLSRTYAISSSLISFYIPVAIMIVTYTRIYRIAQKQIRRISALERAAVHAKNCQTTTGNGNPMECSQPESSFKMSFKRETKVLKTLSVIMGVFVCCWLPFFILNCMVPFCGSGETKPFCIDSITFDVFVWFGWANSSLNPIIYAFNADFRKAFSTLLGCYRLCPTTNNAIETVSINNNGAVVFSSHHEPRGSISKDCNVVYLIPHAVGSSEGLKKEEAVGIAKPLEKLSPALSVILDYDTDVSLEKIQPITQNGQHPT
T1 sequence (P20288 whole entry): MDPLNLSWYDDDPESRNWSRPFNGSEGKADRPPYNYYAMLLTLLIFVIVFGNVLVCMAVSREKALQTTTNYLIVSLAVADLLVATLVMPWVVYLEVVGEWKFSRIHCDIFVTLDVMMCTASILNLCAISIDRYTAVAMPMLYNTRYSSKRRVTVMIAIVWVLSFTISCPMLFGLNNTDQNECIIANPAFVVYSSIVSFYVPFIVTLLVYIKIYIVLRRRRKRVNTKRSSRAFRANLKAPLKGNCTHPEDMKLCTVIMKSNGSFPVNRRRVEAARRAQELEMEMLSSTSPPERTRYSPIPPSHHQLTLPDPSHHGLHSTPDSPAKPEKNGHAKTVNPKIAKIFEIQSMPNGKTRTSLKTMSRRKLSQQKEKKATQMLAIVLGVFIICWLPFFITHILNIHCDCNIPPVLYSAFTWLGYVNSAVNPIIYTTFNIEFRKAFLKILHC

Turning to `O=C(CCCN1CCC(O)(c2ccc(Cl)cc2)CC1)c1ccc(F)cc1` [haloperidol, reference compound], the ED100 in data set [1] (pretreatment time 6 hours) worked out at 0.2 mg/kg.

For `CCC(C)(CC)C(=O)N[C@H]1C[C@@H]2c3cccc4[nH]c(C)c(c34)C[C@H]2N(C)C1` [compound of formula I, N-[(5R,8S,10R)-2,6-dimethyl-ergoline-8-yl]-2-ethyl-2-methyl-butanamide], in data set [2], the NOAEL at 672 h amounted to 3 mg/kg/day. Besides, the “rotations contralateral to the lesion” value in data set [3] (0.5 mg/kg p.o., within 7 hours) amounted to 950 rotations. Also, in [3] (rats, relatively low doses, p.o.), the “rotational behaviour (in words)” value was “long lasting rotational behaviour contralateral to the lesion”. Besides, the IC50 was roughly 0.02 µM on D-2 receptor sites and roughly 0.05 µM on D-1 receptor sites. Also, in the data set “Tolerability in mice”, the MTD was no less than 100 mg/kg. For the same molecule, the “cataleptogenic activity (in words)” value with catalepsy was “only a weak cataleptogenic activity”. For the same molecule, the “threshold dose (catalepsy-median of >10 seconds)” value with catalepsy (8 hour measurement period) worked out at 5 mg/kg p.o. Further, the selectivity ratio in data set [4] was no less than 25. In addition, the ED100 in [1] (pretreatment time 3 hours) and in data set [1] (pretreatment time 6 hours) was 0.2 mg/kg throughout. In the data set with serum prolactin levels [5], the “dose that influences serum prolactin levels” value was no less than 10 mg/kg. In addition, the “effect on prolactin levels, oral administration (overall)” value in the data set with serum prolactin levels [6] is reported as “only weak effects on prolactin levels”. Besides, in the data set on serum prolactin levels [6] (po, 10 mg/kg), the “effect on serum prolactin levels” value was “declines (24 hours) towards normal”.
